Data: paper PMC12221116, “Novel Quinazolinones Active against Multidrug‐Resistant Mycobacterium Tuberculosis: Synthesis, Antimicrobial Evaluation, and in Silico Exploration of Penicillin‐Binding Protein 1A as a Potential Target” (Chemmedchem, 2025)
≈ marks a conversion by molar mass, not a printed value. Where “and” joins values, the source holds several entries; their conditions need not be identical. Equal entries are not always repeated. Where two headings read alike, the source gives them in different places.

How the values were obtained:
[1] = system: Protein RecA; parameters: method as in ChEMBL; settings: target CHEMBL1741171; ref ChEMBL; cited from earlier work
[2] = molecular target: Replicative DNA helicase; parameters: method as in ChEMBL; settings: target CHEMBL1741192; ref ChEMBL; cited from earlier work
[3] = system: Mycobacterium tuberculosis; settings: target CHEMBL360; ref ChEMBL; cited from earlier work
[4] = system: M. kansasii; assay: Microplate Alamar Blue assay, MIC; assay type: cell-based, Mycobacterium kansasii; settings: Mycobacterium kansasii; read-out: Antimycobacterial Activity MIC M. kans.
[5] = system: Bacteria, incl. SA; assay: Antibacterial microdilution screening (eight strains); assay type: cell-based; settings: read after 24 and 48 h, highest tested concentration 500 μM
[6] = system: M. aurum; assay: Microdilution broth resazurin assay, MIC; assay type: cell-based, Mycolicibacterium aurum
[7] = system: Fungi; assay: Antifungal microdilution screening (eight strains); assay type: cell-based; settings: read after 24 and 48 h (72 and 120 h for TI), highest tested concentration 500 μM
[8] = system: Mtb H37Ra; assay: Microdilution broth resazurin assay, MIC; assay type: cell-based, Mycobacterium tuberculosis; settings: for MIC: Mycobacterium tuberculosis, H37RA
[9] = system: Mtb H37Rv; assay: Microplate Alamar Blue assay, MIC; assay type: cell-based, Mycobacterium tuberculosis; settings: Mycobacterium tuberculosis, H37RV
[10] = system: MDR Mtb H37Rv; assay: microbe, parasite or virus in culture; assay type: cell-based; settings: Mycobacterium tuberculosis, read-out: MIC MDR Mtb H37Rv
[11] = system: M. avium; assay: Microdilution broth resazurin assay, MIC; assay type: cell-based, Mycobacterium avium
[12] = system: M. smegmatis; assay: Microdilution broth resazurin assay, MIC; assay type: cell-based, Mycolicibacterium smegmatis
[13] = system: HepG2; assay: cells; settings: Homo sapiens
[14] = system: MRC-5; assay: cells; settings: Homo sapiens

O=c1c2ccccc2nc(/C=C/c2cccnc2)n1CCc1ccccc1 [CHEMBL1366795]
EC50 [1]: 12 µM

O=c1c2ccccc2nc(/C=C/c2cccnc2)n1Cc1ccccc1 [CHEMBL1567670]
AC50 [2]: 13.6 µM and 9.29 µM
EC50 [1]: 9.92 µM

Cc1nc2ccc(-c3ccccc3)cc2c(=O)n1-c1ccccc1 [CHEMBL4442905]
MIC Mycobacterium tuberculosis [3]: > 64 µg/mL

C#CCNc1ccc2c(=O)n(-c3ccccc3)c(C)nc2c1 [CHEMBL4444032]
MIC Mycobacterium tuberculosis [3]: 4 µg/mL (≈ 13.8 µM)

COc1ccc(Cn2c(C)nc3cc(Cl)ccc3c2=O)cc1 [Compound 17]
MIC [4]: > 100 µg/mL
MIC Bacteria, incl. SA [5]: inactive
Antimycobacterial Activity MIC M. aurum [6]: 15.625 µg/mL
MIC ([6]; Mycolicibacterium aurum, read-out: Antimycobacterial Activity MIC M. aurum): 15.6 µg/mL (≈ 49.6 µM)
MIC Fungi [7]: inactive
Antimycobacterial Activity MIC Mtb H37Ra [8]: 7.81 µg/mL
MIC ([8]; read-out: Antimycobacterial Activity MIC Mtb H37Ra): 7.81 µg/mL
MIC ([8]; calculated from the measured MIC in mass concentration units, read-out: MIC Mtb H37Ra): 25 µM
MIC ([9]; Microplate Alamar Blue assay, read-out: Antimycobacterial Activity MIC Mtb H37Rv): 12.5 µg/mL
MIC ([9]; calculated from the measured MIC in mass concentration units, read-out: MIC Mtb H37Rv): 40 µM
MIC ([9]; read-out: Antimycobacterial Activity MIC Mtb H37Rv, Table S5 matching pairs series A and B): > 100 µg/mL
MIC [10]: 40 µM (≈ 12.6 µg/mL)
MIC ([11]; Mycobacterium avium, read-out: Antimycobacterial Activity MIC M. avium): ≥ 500 µg/mL
Antimycobacterial Activity MIC M. avium ([11]; Table S5 matching pairs series A and B): ≥ 500 µg/mL
Antimycobacterial Activity MIC M. smeg. [12]: 31.25 µg/mL
MIC ([12]; Mycolicibacterium smegmatis, read-out: Antimycobacterial Activity MIC M. smeg.): 31.2 µg/mL (≈ 99.3 µM)
IC50 ([13]; HepG2, 24 h, read-out: IC50 for HepG2 [24 h]): > 50 µM
IC50 ([13]; HepG2, 72 h, read-out: IC50 for HepG2 [72 h]): > 50 µM
IC50 ([14]; MRC5, 24 h, read-out: IC50 for MRC-5 [24 h]): > 100 µM
IC50 ([14]; MRC5, 72 h, read-out: IC50 for MRC-5 [72 h]): > 100 µM
